The test in a line: Inhibition of Cryptosporidium hominis dihydrofolate reductase expressed in Escherichia coli by spectrophotometry.

Structures are written as SMILES.

As a reminder, the IC50 is the point on the concentration scale where inhibition reaches its midpoint. Read a high IC50 as a need for much substance. In the case of `COc1cc(-c2c(C)cccc2C)cc(C(C)C#Cc2c(C)nc(N)nc2N)c1` (racemic), the half-maximal inhibitory concentration (IC50) amounted to 2.1 nM.
In turn, `COc1cc(C(C)C#Cc2c(C)nc(N)nc2N)ccc1-c1c(C(C)C)cccc1C(C)C` (racemic) came in with a 50% inhibitory concentration (IC50) of 16 nM.
